Article PMC12637021, “Talin–tensin3 interactions regulate fibrillar adhesion formation and tensin3 phase separation” (The Journal of Cell Biology, 2025)

System: tensin3 IDR (mCh-IDR)
Experiment: mitochondrial pulldown, talin constructs with mCh-IDR
Assay type: binding, Homo sapiens
Details: TLN1-E1770A-cBAK vs TLN1-WT-cBAK; HEK293T; three replicates
Experimental: Mitochondrial isolation from HEK293T cells was performed after 24 h of transient expression using a combined method of Qproteome Mitochondria Isolation Kit (QIAGEN) and MACS Mitochondria Isolation Kit (Miltenyi). Cells were collected in ice-cold PBS and aliquoted for the preparation of the whole-cell lysate (wcl) fraction (30%) and the mitochondrial fraction (70%). Cell lysis and homogenization of the mitochondrial fraction were performed according to the manufacturer’s instructions (QIAGEN). Magnetic anti-TOM22 microbeads (Miltenyi) were used to label mitochondria in the homogenized mitochondrial fraction for 1 h at 4°C. The labeled mitochondria were separated from a magnetic column before elution with ice-cold separation buffer (Miltenyi). The eluted mitochondria were washed and centrifuged according to the Miltenyi’s instructions. RIPA buffer (ChromoTek) was used for protein extraction from the wcl and purified mitochondria. Samples were stored at −80°C prior to western blotting.
Samples were mixed with sample buffer (4X, Invitrogen) supplemented with reducing agent (10X, Invitrogen). […] Signals were detected using goat anti-mouse IgG conjugated to IRDye 680RD (1:15,000, ab216776; Abcam) and goat anti-rabbit IgG conjugated to IRDye 800CW (1:15000, ab216773; Abcam) secondary antibodies. […] Western blot analysis and quantification were performed using ImageJ software.

How did the “increase in IDR pulldown vs WT talin” value turn out when “TLN1-E1770A-cBAK: constitutively active talin1 construct” was run?
The value was 50%.
